“And” between values parts separate entries of the source, which are not always exact repeats. Identical values can stand only once.
Key:
[1] = Liquid; for viscosity: 101.3 kPa, Falling or rolling sphere viscometry; for mass density: 101.33 kPa, Vibrating tube method
[2] = xn = mol fraction of the nth substance listed; details: 101.3 kPa, Liquid, Falling or rolling sphere viscometry

C1CCCCC1 [cyclohexane]
[1]
Details	mass density [kg/m3]	viscosity [mPa·s]
293.15 K	–	0.976
298.15 K	773.8	0.894
303.15 K	–	0.813
313.15 K	–	0.697

CCOC(=O)OCC [diethyl carbonate]
[1]
Details	mass density [kg/m3]	viscosity [mPa·s]
293.15 K	–	0.795
298.15 K	969.1	0.749
303.15 K	–	0.699
313.15 K	–	0.623

COC(=O)OC [dimethyl carbonate]
[1]
Details	mass density [kg/m3]	viscosity [mPa·s]
293.15 K	–	0.626
298.15 K	1063.5	0.585
303.15 K	–	0.536
313.15 K	–	0.494

COC(=O)OC [dimethyl carbonate] + CCCCCC
[2]
Details	viscosity [mPa·s]
293.15 K, x1 = 0.0722	0.312
293.15 K, x1 = 0.1448	0.315
293.15 K, x1 = 0.2286	0.325
293.15 K, x1 = 0.3026	0.338
293.15 K, x1 = 0.4102	0.359
293.15 K, x1 = 0.5062	0.384
293.15 K, x1 = 0.6026	0.412
293.15 K, x1 = 0.7052	0.451
293.15 K, x1 = 0.7974	0.494
293.15 K, x1 = 0.901	0.552
293.15 K, x1 = 0.9506	0.585
293.15 K, x1 = 1	0.626
298.15 K, x1 = 0.082	0.306
298.15 K, x1 = 0.1269	0.311
298.15 K, x1 = 0.2131	0.322
298.15 K, x1 = 0.3197	0.336
298.15 K, x1 = 0.3787	0.345
298.15 K, x1 = 0.4712	0.362
298.15 K, x1 = 0.5121	0.37
298.15 K, x1 = 0.6067	0.392
298.15 K, x1 = 0.6987	0.423
298.15 K, x1 = 0.842	0.487
298.15 K, x1 = 0.9248	0.53
298.15 K, x1 = 0.9615	0.555
298.15 K, x1 = 1	0.585
303.15 K, x1 = 0.0468	0.287
303.15 K, x1 = 0.0991	0.293
303.15 K, x1 = 0.1951	0.305
303.15 K, x1 = 0.295	0.314
303.15 K, x1 = 0.3832	0.327
303.15 K, x1 = 0.4865	0.342
303.15 K, x1 = 0.5899	0.363
303.15 K, x1 = 0.696	0.394
303.15 K, x1 = 0.7947	0.433
303.15 K, x1 = 0.8939	0.478
303.15 K, x1 = 0.9436	0.507
303.15 K, x1 = 1	0.536
313.15 K, x1 = 0.0495	0.267
313.15 K, x1 = 0.1	0.274
313.15 K, x1 = 0.2092	0.286
313.15 K, x1 = 0.3093	0.296
313.15 K, x1 = 0.4043	0.306
313.15 K, x1 = 0.4941	0.321
313.15 K, x1 = 0.6052	0.347
313.15 K, x1 = 0.7063	0.379
313.15 K, x1 = 0.8046	0.416
313.15 K, x1 = 0.9014	0.458
313.15 K, x1 = 0.9497	0.477
313.15 K, x1 = 1	0.494

COC(=O)OC [dimethyl carbonate] + CCCCCCC
[2]
Details	viscosity [mPa·s]
293.15 K, x1 = 0.05	0.407
293.15 K, x1 = 0.094	0.405
293.15 K, x1 = 0.2039	0.407
293.15 K, x1 = 0.324	0.413
293.15 K, x1 = 0.4062	0.422
293.15 K, x1 = 0.5059	0.441
293.15 K, x1 = 0.6099	0.462
293.15 K, x1 = 0.6987	0.488
293.15 K, x1 = 0.8086	0.527
293.15 K, x1 = 0.9029	0.567
293.15 K, x1 = 0.9504	0.594
293.15 K, x1 = 1	0.626
298.15 K, x1 = 0.0594	0.383
298.15 K, x1 = 0.1204	0.384
298.15 K, x1 = 0.2132	0.385
298.15 K, x1 = 0.3135	0.388
298.15 K, x1 = 0.4018	0.397
298.15 K, x1 = 0.4716	0.406
298.15 K, x1 = 0.6051	0.43
298.15 K, x1 = 0.6946	0.452
298.15 K, x1 = 0.8031	0.489
298.15 K, x1 = 0.902	0.528
298.15 K, x1 = 0.9477	0.554
298.15 K, x1 = 1	0.585
303.15 K, x1 = 0.0586	0.37
303.15 K, x1 = 0.0873	0.367
303.15 K, x1 = 0.1996	0.368
303.15 K, x1 = 0.299	0.375
303.15 K, x1 = 0.4009	0.388
303.15 K, x1 = 0.5081	0.403
303.15 K, x1 = 0.6069	0.426
303.15 K, x1 = 0.6979	0.454
303.15 K, x1 = 0.8051	0.495
303.15 K, x1 = 0.9069	0.518
303.15 K, x1 = 0.9638	0.518
303.15 K, x1 = 1	0.536
313.15 K, x1 = 0.0649	0.33
313.15 K, x1 = 0.1157	0.328
313.15 K, x1 = 0.3432	0.334
313.15 K, x1 = 0.4378	0.341
313.15 K, x1 = 0.5458	0.355
313.15 K, x1 = 0.6259	0.37
313.15 K, x1 = 0.7191	0.393
313.15 K, x1 = 0.8128	0.416
313.15 K, x1 = 0.8798	0.443
313.15 K, x1 = 0.9536	0.475
313.15 K, x1 = 0.9822	0.485
313.15 K, x1 = 1	0.494

COC(=O)OC [dimethyl carbonate] + CCCCCCCC
[2]
Details	viscosity [mPa·s]
293.15 K, x1 = 0.0513	0.532
293.15 K, x1 = 0.0997	0.524
293.15 K, x1 = 0.2027	0.508
293.15 K, x1 = 0.3063	0.506
293.15 K, x1 = 0.3994	0.502
293.15 K, x1 = 0.5123	0.507
293.15 K, x1 = 0.6078	0.512
293.15 K, x1 = 0.7137	0.524
293.15 K, x1 = 0.8055	0.541
293.15 K, x1 = 0.9061	0.575
293.15 K, x1 = 0.9516	0.596
293.15 K, x1 = 1	0.626
298.15 K, x1 = 0.0558	0.504
298.15 K, x1 = 0.096	0.498
298.15 K, x1 = 0.1488	0.489
298.15 K, x1 = 0.2289	0.478
298.15 K, x1 = 0.2947	0.477
298.15 K, x1 = 0.4216	0.474
298.15 K, x1 = 0.4883	0.475
298.15 K, x1 = 0.5931	0.479
298.15 K, x1 = 0.6867	0.491
298.15 K, x1 = 0.7879	0.509
298.15 K, x1 = 0.8873	0.541
298.15 K, x1 = 0.9502	0.561
298.15 K, x1 = 1	0.585
303.15 K, x1 = 0.0519	0.478
303.15 K, x1 = 0.0827	0.474
303.15 K, x1 = 0.1947	0.457
303.15 K, x1 = 0.2829	0.452
303.15 K, x1 = 0.3948	0.45
303.15 K, x1 = 0.4942	0.448
303.15 K, x1 = 0.5964	0.45
303.15 K, x1 = 0.6983	0.46
303.15 K, x1 = 0.7886	0.473
303.15 K, x1 = 0.8946	0.5
303.15 K, x1 = 0.9545	0.52
303.15 K, x1 = 1	0.536
313.15 K, x1 = 0.0512	0.432
313.15 K, x1 = 0.1005	0.43
313.15 K, x1 = 0.186	0.419
313.15 K, x1 = 0.301	0.413
313.15 K, x1 = 0.4072	0.409
313.15 K, x1 = 0.5002	0.41
313.15 K, x1 = 0.6042	0.417
313.15 K, x1 = 0.709	0.43
313.15 K, x1 = 0.7993	0.446
313.15 K, x1 = 0.8465	0.459
313.15 K, x1 = 0.9524	0.485
313.15 K, x1 = 1	0.494

CCCCCCC [heptane]
[1]
Details	mass density [kg/m3]	viscosity
293.15 K	–	0.411 mPa·s
298.15 K	679.4	0.388 mPa·s
303.15 K	–	0.37 mPa·s and 0.375 mPa·s
313.15 K	–	0.334 mPa·s

CCCCCCC [heptane] + CCOC(=O)OCC
[2], x2 = 0
Details	viscosity [mPa·s]
293.15 K	0.411
298.15 K	0.388
303.15 K	0.375
313.15 K	0.334

CCCCCCC [heptane] + COC(=O)OC
[2], x2 = 0
Details	viscosity [mPa·s]
293.15 K	0.411
298.15 K	0.388
303.15 K	0.37
313.15 K	0.334

CCCCCC [hexane]
[1]
Details	mass density [kg/m3]	viscosity [mPa·s]
293.15 K	–	0.313
298.15 K	654.8	0.301
303.15 K	–	0.282
313.15 K	–	0.258

CCCCCC [hexane] + CCOC(=O)OCC
[2], x2 = 0
Details	viscosity [mPa·s]
293.15 K	0.313
298.15 K	0.301
303.15 K	0.282
313.15 K	0.258

CCCCCC [hexane] + COC(=O)OC
[2], x2 = 0
Details	viscosity [mPa·s]
293.15 K	0.313
298.15 K	0.301
303.15 K	0.282
313.15 K	0.258

CCCCCCCC [octane]
[1]
Details	mass density [kg/m3]	viscosity [mPa·s]
293.15 K	–	0.545
298.15 K	698.5	0.513
303.15 K	–	0.484
313.15 K	–	0.434

CCCCCCCC [octane] + CCOC(=O)OCC
[2], x2 = 0
Details	viscosity [mPa·s]
293.15 K	0.545
298.15 K	0.513
303.15 K	0.484
313.15 K	0.434

CCCCCCCC [octane] + COC(=O)OC
[2], x2 = 0
Details	viscosity [mPa·s]
293.15 K	0.545
298.15 K	0.513
303.15 K	0.484
313.15 K	0.434

From the NIST ThermoML archive (doi:10.1021/je020131a)
